Measurements reported in publication PMC9954146, “Anti-Leukaemic Activity of Rilpivirine Is Mediated by Aurora A Kinase Inhibition” (Cancers, 2023).

How the values were obtained:
Test in all cases: Kinase panel
Type in all cases: biochemical
Conditions in all cases: read-out: % Residual Activity
MARK3(h) = target: T1, MARK3(h) (Homo sapiens, UniProt P27448)
T1 construct: purchased Eurofins (KinaseProfiler)
Summary of the method: (§1)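 Selectivity panel (kinome-wide), rilpivirine as test compound. Readout: radiolabel incorporation. ATP = Km of the respective kinase. Ki calculated from IC50 (Cheng–Prusoff).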

Abl(Y253F)(h) = target: T2, Abl(Y253F)(h) (Homo sapiens, UniProt P00519, Y253F)
T2 construct: purchased Eurofins (KinaseProfiler)
Summary of the method: as §1

MRCKα(h) = target: T3, MRCKα(h) (Homo sapiens, UniProt Q5VT25)
T3 construct: purchased Eurofins (KinaseProfiler)
Summary of the method: as §1

TLK1(h) = target: T4, TLK1(h) (Homo sapiens, UniProt Q9UKI8)
T4 construct: purchased Eurofins (KinaseProfiler)
Summary of the method: as §1

PKCε(h) = target: T5, PKCε(h) (Homo sapiens, UniProt Q02156)
T5 construct: purchased Eurofins (KinaseProfiler)
Summary of the method: as §1

CK1γ2(h) = target: T6, CK1γ2(h) (Homo sapiens, UniProt P78368)
T6 construct: purchased Eurofins (KinaseProfiler)
Summary of the method: as §1

JNK3(h) = target: T7, JNK3(h) (Homo sapiens, UniProt P53779)
T7 construct: purchased Eurofins (KinaseProfiler)
Summary of the method: as §1

LIMK2(h) = target: T8, LIMK2(h) (Homo sapiens, UniProt P53671)
T8 construct: purchased Eurofins (KinaseProfiler)
Summary of the method: as §1

LKB1(h) = target: T9, LKB1(h) (Homo sapiens, UniProt Q15831)
T9 construct: purchased Eurofins (KinaseProfiler)
Summary of the method: as §1

TLK2(h) = target: T10, TLK2(h) (Homo sapiens, UniProt Q86UE8)
T10 construct: purchased Eurofins (KinaseProfiler)
Summary of the method: as §1

CK2(h) = target: T11, CK2(h) (Homo sapiens, UniProt P68400)
T11 construct: purchased Eurofins (KinaseProfiler)
Summary of the method: as §1

MAPKAP-K3(h) = target: T12, MAPKAP-K3(h) (Homo sapiens, UniProt Q16644)
T12 construct: purchased Eurofins (KinaseProfiler)
Summary of the method: as §1

Aurora-A(h) = target: T13, Aurora-A(h) (Homo sapiens, UniProt O14965)
T13 construct: purchased Eurofins (KinaseProfiler)
Summary of the method: as §1

EphB2(h) = target: T14, EphB2(h) (Homo sapiens, UniProt P29323)
T14 construct: purchased Eurofins (KinaseProfiler)
Summary of the method: as §1

MKK4(m) = target: T15, MKK4(m) (Mus musculus, UniProt P47809)
T15 construct: purchased Eurofins (KinaseProfiler)
Summary of the method: as §1

Fms(h) = target: T16, Fms(h) (Homo sapiens, UniProt P07333)
T16 construct: purchased Eurofins (KinaseProfiler)
Summary of the method: as §1

WNK2(h) = target: T17, WNK2(h) (Homo sapiens, UniProt Q9Y3S1)
T17 construct: purchased Eurofins (KinaseProfiler)
Summary of the method: as §1

TSSK1(h) = target: T18, TSSK1(h) (Homo sapiens, UniProt Q9BXA7)
T18 construct: purchased Eurofins (KinaseProfiler)
Summary of the method: as §1

DYRK1A(h) = target: T19, DYRK1A(h) (Homo sapiens, UniProt Q13627)
T19 construct: purchased Eurofins (KinaseProfiler)
Summary of the method: as §1

IRAK1(h) = target: T20, IRAK1(h) (Homo sapiens, UniProt P51617)
T20 construct: purchased Eurofins (KinaseProfiler)
Summary of the method: as §1

HIPK3(h) = target: T21, HIPK3(h) (Homo sapiens, UniProt Q9H422)
T21 construct: purchased Eurofins (KinaseProfiler)
Summary of the method: as §1

TTBK1(h) = target: T22, TTBK1(h) (Homo sapiens, UniProt Q5TCY1)
T22 construct: purchased Eurofins (KinaseProfiler)
Summary of the method: as §1

Fgr(h) = target: T23, Fgr(h) (Homo sapiens, UniProt P09769)
T23 construct: purchased Eurofins (KinaseProfiler)
Summary of the method: as §1

PDHK2(h) = target: T24, PDHK2(h) (Homo sapiens, UniProt Q15119)
T24 construct: purchased Eurofins (KinaseProfiler)
Summary of the method: as §1

PAK5(h) = target: T25, PAK5(h) (Homo sapiens, UniProt Q9P286)
T25 construct: purchased Eurofins (KinaseProfiler)
Summary of the method: as §1

PhKγ1(h) = target: T26, PhKγ1(h) (Homo sapiens, UniProt Q16816)
T26 construct: purchased Eurofins (KinaseProfiler)
Summary of the method: as §1

Flt1(h) = target: T27, Flt1(h) (Homo sapiens, UniProt P17948)
T27 construct: purchased Eurofins (KinaseProfiler)
Summary of the method: as §1

HRI(h) = target: T28, HRI(h) (Homo sapiens, UniProt Q9BQI3)
T28 construct: purchased Eurofins (KinaseProfiler)
Summary of the method: as §1

ROCK-II(r) = target: T29, ROCK-II(r) (Rattus norvegicus, UniProt Q62868)
T29 construct: purchased Eurofins (KinaseProfiler)
Summary of the method: as §1

CaMKIIγ(h) = target: T30, CaMKIIγ(h) (Homo sapiens, UniProt Q13555)
T30 construct: purchased Eurofins (KinaseProfiler)
Summary of the method: as §1

GRK5(h) = target: T31, GRK5(h) (Homo sapiens, UniProt P34947)
T31 construct: purchased Eurofins (KinaseProfiler)
Summary of the method: as §1

TAK1(h) = target: T32, TAK1(h) (Homo sapiens, UniProt O43318)
T32 construct: purchased Eurofins (KinaseProfiler)
Summary of the method: as §1

Hck(h) activated = target: T33, Hck(h) activated (Homo sapiens, UniProt P08631)
T33 construct: purchased Eurofins (KinaseProfiler)
Summary of the method: as §1

[1] = target: PI3 Kinase (p110a(H1047R)/p85a)(m) (Mus musculus, UniProt P42337, H1047R)
Summary of the method: as §1

[2] = target: PI3 Kinase (p110a/p85a)(h) (Homo sapiens, UniProt P42336)
Summary of the method: as §1

Src(T341M)(h) = target: T34, Src(T341M)(h) (Homo sapiens, UniProt P12931, T341M)
T34 construct: purchased Eurofins (KinaseProfiler)
Summary of the method: as §1

NEK6(h) = target: T35, NEK6(h) (Homo sapiens, UniProt Q9HC98)
T35 construct: purchased Eurofins (KinaseProfiler)
Summary of the method: as §1

TBK1(h) = target: T36, TBK1(h) (Homo sapiens, UniProt Q9UHD2)
T36 construct: purchased Eurofins (KinaseProfiler)
Summary of the method: as §1

T13 sequence (O14965 whole entry): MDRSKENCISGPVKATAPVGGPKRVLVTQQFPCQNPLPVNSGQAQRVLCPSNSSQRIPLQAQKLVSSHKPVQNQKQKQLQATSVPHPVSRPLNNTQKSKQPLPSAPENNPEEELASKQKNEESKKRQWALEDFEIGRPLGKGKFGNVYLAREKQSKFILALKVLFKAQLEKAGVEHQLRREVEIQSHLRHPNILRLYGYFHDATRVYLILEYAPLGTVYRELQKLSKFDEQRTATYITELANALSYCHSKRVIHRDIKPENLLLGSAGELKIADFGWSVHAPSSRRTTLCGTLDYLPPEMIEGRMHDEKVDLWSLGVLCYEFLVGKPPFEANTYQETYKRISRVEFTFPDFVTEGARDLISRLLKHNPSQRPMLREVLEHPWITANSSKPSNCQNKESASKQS
T23 sequence (P09769 whole entry): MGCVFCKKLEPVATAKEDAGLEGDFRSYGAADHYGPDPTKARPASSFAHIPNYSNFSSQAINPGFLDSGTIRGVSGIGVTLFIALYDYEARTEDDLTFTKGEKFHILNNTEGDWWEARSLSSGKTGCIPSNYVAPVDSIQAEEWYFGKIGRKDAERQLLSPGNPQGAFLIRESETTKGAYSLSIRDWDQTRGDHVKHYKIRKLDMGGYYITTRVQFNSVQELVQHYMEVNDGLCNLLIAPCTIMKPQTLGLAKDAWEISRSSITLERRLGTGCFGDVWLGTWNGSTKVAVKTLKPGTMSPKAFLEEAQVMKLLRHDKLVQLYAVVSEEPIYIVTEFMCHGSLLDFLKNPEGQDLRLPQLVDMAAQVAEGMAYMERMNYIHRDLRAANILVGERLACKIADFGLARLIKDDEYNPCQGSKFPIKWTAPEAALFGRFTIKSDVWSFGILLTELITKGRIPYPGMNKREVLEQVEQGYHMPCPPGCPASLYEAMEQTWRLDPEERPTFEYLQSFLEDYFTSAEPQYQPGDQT
T10 sequence (Q86UE8 whole entry): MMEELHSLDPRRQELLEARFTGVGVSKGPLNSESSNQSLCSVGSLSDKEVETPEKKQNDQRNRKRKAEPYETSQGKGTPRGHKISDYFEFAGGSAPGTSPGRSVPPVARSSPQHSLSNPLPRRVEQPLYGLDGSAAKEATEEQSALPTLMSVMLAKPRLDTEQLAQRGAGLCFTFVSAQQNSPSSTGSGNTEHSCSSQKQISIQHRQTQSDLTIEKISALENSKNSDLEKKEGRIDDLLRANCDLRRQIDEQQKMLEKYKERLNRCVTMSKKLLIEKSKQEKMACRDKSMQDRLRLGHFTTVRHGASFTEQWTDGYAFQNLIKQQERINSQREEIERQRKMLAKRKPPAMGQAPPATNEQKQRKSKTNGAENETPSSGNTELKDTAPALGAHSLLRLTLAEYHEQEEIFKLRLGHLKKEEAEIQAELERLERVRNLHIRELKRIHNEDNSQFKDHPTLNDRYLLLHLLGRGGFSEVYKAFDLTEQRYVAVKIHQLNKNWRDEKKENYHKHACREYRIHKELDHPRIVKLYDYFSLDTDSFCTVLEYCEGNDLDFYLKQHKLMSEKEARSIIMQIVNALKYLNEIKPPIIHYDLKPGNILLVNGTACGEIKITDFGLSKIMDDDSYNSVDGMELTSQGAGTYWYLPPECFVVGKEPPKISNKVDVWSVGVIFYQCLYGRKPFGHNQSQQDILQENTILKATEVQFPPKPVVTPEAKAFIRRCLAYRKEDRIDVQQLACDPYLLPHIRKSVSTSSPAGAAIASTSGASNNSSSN
T33 sequence (P08631 whole entry): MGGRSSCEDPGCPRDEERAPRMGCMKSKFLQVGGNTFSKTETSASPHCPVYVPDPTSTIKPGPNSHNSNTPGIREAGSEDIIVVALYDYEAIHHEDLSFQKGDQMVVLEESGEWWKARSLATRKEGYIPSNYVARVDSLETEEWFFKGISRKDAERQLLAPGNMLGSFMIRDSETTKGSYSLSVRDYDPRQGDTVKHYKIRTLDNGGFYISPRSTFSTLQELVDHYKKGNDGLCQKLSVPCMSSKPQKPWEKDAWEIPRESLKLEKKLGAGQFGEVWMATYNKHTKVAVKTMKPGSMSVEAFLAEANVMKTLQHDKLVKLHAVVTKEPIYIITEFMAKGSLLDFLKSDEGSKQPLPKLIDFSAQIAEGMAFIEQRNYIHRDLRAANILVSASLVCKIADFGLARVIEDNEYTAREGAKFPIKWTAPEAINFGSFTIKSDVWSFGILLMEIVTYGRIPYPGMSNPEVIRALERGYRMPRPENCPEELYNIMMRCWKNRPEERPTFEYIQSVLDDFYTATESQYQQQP
T35 sequence (Q9HC98 whole entry): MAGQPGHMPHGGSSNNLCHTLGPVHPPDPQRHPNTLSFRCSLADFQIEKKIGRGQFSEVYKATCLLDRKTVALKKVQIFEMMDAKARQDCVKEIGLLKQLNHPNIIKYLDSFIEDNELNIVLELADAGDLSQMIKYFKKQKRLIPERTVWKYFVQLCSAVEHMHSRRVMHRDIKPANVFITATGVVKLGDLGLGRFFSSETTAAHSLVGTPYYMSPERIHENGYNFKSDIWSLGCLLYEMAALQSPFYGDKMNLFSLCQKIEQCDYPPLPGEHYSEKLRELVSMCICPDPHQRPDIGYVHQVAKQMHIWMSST
T29 sequence (Q62868 2-543 limits assumed): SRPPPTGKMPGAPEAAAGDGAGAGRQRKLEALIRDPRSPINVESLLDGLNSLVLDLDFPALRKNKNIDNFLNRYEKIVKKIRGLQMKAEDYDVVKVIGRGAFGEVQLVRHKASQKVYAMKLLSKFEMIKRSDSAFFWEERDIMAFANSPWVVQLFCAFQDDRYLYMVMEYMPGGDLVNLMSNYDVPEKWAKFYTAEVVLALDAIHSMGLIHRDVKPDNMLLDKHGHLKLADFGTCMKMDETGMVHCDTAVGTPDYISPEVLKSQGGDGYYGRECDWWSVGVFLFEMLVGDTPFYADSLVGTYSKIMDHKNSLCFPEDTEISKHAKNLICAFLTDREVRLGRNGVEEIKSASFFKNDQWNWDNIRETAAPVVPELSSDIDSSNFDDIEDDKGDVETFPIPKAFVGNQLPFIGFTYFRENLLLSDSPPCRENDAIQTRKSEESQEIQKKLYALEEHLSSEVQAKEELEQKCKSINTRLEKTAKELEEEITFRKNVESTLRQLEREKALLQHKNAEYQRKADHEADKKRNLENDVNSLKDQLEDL
T34 sequence (P12931 whole entry T341M): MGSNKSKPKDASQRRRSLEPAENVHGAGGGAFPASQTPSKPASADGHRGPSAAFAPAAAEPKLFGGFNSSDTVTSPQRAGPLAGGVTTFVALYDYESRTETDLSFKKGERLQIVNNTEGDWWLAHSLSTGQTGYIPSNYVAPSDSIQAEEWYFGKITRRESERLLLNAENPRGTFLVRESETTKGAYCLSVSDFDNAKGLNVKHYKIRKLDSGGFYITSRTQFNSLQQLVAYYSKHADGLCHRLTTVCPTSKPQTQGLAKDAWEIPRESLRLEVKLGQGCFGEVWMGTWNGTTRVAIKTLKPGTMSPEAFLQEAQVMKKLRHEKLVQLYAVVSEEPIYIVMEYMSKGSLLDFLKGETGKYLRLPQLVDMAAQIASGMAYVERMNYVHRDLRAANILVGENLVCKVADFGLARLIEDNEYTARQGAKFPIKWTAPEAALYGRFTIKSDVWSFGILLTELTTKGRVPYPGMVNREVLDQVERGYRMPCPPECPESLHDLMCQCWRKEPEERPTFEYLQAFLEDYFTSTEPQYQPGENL
T9 sequence (Q15831 whole entry): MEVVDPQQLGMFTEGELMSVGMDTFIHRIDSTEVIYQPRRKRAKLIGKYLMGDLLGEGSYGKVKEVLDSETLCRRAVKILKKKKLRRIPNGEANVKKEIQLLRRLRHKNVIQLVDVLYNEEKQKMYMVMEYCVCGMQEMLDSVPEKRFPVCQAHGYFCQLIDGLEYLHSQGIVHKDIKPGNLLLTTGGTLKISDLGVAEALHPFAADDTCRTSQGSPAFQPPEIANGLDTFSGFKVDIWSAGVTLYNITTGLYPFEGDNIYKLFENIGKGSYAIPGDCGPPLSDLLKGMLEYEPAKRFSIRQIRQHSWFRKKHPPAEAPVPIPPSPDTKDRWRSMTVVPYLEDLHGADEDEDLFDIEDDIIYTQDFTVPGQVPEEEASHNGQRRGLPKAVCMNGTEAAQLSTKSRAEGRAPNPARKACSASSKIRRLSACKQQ
T9 sequence (Q7RTN6 whole entry partner): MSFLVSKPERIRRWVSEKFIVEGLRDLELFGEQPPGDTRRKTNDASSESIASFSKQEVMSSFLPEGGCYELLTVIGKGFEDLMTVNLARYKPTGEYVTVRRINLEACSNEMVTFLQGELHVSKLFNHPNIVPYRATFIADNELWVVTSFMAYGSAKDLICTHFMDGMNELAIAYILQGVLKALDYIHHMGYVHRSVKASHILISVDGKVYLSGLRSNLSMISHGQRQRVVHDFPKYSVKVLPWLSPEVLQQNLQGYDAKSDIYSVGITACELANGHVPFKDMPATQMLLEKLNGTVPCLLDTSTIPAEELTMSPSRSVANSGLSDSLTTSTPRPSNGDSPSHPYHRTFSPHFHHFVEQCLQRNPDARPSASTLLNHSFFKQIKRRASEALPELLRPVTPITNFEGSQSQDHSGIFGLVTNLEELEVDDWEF
T9 sequence (Q9Y376 whole entry partner): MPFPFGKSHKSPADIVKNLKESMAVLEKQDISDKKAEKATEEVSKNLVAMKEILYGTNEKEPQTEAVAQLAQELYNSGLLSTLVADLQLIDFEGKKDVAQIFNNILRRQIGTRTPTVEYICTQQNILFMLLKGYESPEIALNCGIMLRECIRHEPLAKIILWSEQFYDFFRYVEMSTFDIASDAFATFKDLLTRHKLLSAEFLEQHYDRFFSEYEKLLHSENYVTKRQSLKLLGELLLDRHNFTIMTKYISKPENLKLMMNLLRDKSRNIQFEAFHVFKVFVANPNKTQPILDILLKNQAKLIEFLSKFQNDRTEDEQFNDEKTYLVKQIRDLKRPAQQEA

Compound `Cc1cc(/C=C/C#N)cc(C)c1Nc1ccnc(Nc2ccc(C#N)cc2)n1` [rilpivirine, (E)-4-((4-((4-(2-cyanoethenyl)-2,6-dimethylphenyl)amino)pyrimidin-2-yl)amino)benzonitrile] has a remaining activity at 1 µM (MARK3(h)) of 87%, a remaining activity at 1 µM (Abl(Y253F)(h)) of 58% and a remaining activity at 1 µM (MRCKα(h)) of 86%. For the same compound, the remaining activity at 1 µM (TLK1(h)) was 95%, the remaining activity at 1 µM (PKCε(h)) was 89% and the remaining activity at 1 µM (CK1γ2(h)) was 90%. The remaining activity at 1 µM (JNK3(h)) was 100%, the remaining activity at 1 µM (LIMK2(h)) was 71% and the remaining activity at 1 µM (LKB1(h)) was 87%. It also gave a remaining activity at 1 µM (TLK2(h)) of 115%, a remaining activity at 1 µM (CK2(h)) of 90% and a remaining activity at 1 µM (MAPKAP-K3(h)) of 90%. The remaining activity at 1 µM (Aurora-A(h)) was 14%, the remaining activity at 1 µM (EphB2(h)) was 78% and the remaining activity at 1 µM (MKK4(m)) was 84%. For the same compound, the remaining activity at 1 µM (Fms(h)) was 91%, the remaining activity at 1 µM (WNK2(h)) was 80% and the remaining activity at 1 µM (TSSK1(h)) was 86%. It also gave a remaining activity at 1 µM (DYRK1A(h)) of 56%, a remaining activity at 1 µM (IRAK1(h)) of 84% and a remaining activity at 1 µM (HIPK3(h)) of 92%. It also gave a remaining activity at 1 µM (TTBK1(h)) of 90%, a remaining activity at 1 µM (Fgr(h)) of 37% and a remaining activity at 1 µM (PDHK2(h)) of 90%. It also gave a remaining activity at 1 µM (PAK5(h)) of 91%, a remaining activity at 1 µM (PhKγ1(h)) of 80% and a remaining activity at 1 µM (Flt1(h)) of 100%. It also gave a remaining activity at 1 µM (HRI(h)) of 91%, a remaining activity at 1 µM (ROCK-II(r)) of 94% and a remaining activity at 1 µM (CaMKIIγ(h)) of 58%. The remaining activity at 1 µM (GRK5(h)) was 96%, the remaining activity at 1 µM (TAK1(h)) was 105% and the remaining activity at 1 µM (Hck(h) activated) was 63%. The remaining activity at 1 µM [1] was 96%, the remaining activity at 1 µM [2] was 98% and the remaining activity at 1 µM (Src(T341M)(h)) was 78%. It also gave a remaining activity at 1 µM (NEK6(h)) of 94% and a remaining activity at 1 µM (TBK1(h)) of 72%.
